Assay results published in BigSolDB 2.1.

O=C(O)CC[C@H](NC(=O)OCC1c2ccccc2-c2ccccc21)C(=O)O
solubility (mole fraction) (in 2-butanone, 283.15 K): 0.0112 | solubility (mole fraction) (in 2-butanone, 288.15 K): 0.0112 | solubility (mole fraction) (in 2-butanone, 293.15 K): 0.012 | solubility (mole fraction) (in 2-butanone, 298.15 K): 0.0127 | solubility (mole fraction) (in 2-butanone, 303.15 K): 0.0136 | solubility (mole fraction) (in 2-butanone, 308.15 K): 0.0143 | solubility (mole fraction) (in 2-butanone, 313.15 K): 0.0157 | solubility (mole fraction) (in 2-butanone, 318.15 K): 0.0176 | solubility (mole fraction) (in 2-butanone, 323.15 K): 0.0191 | solubility (mole fraction) (in acetone, 283.15 K): 0.0243 | solubility (mole fraction) (in acetone, 288.15 K): 0.0261 | solubility (mole fraction) (in acetone, 293.15 K): 0.0274 | solubility (mole fraction) (in acetone, 298.15 K): 0.0295 | solubility (mole fraction) (in acetone, 303.15 K): 0.0323 | solubility (mole fraction) (in acetone, 308.15 K): 0.0342 | solubility (mole fraction) (in acetone, 313.15 K): 0.0393 | solubility (mole fraction) (in acetone, 318.15 K): 0.0437 | solubility (mole fraction) (in acetone, 323.15 K): 0.0471 | solubility (mole fraction) (in acetonitrile, 283.15 K): 0.000662 | solubility (mole fraction) (in acetonitrile, 288.15 K): 0.000708 | solubility (mole fraction) (in acetonitrile, 293.15 K): 0.0008 | solubility (mole fraction) (in acetonitrile, 298.15 K): 0.000997 | solubility (mole fraction) (in acetonitrile, 303.15 K): 0.00123 | solubility (mole fraction) (in acetonitrile, 308.15 K): 0.00139 | solubility (mole fraction) (in acetonitrile, 313.15 K): 0.00166 | solubility (mole fraction) (in acetonitrile, 318.15 K): 0.00194 | solubility (mole fraction) (in acetonitrile, 323.15 K): 0.00232 | solubility (mole fraction) (in dimethyl carbonate, 283.15 K): 0.00058 | solubility (mole fraction) (in dimethyl carbonate, 288.15 K): 0.000625 | solubility (mole fraction) (in dimethyl carbonate, 293.15 K): 0.000736 | solubility (mole fraction) (in dimethyl carbonate, 298.15 K): 0.000819 | solubility (mole fraction) (in dimethyl carbonate, 303.15 K): 0.000911 | solubility (mole fraction) (in dimethyl carbonate, 308.15 K): 0.00108 | solubility (mole fraction) (in dimethyl carbonate, 313.15 K): 0.00123 | solubility (mole fraction) (in dimethyl carbonate, 318.15 K): 0.00157 | solubility (mole fraction) (in dimethyl carbonate, 323.15 K): 0.00186 | solubility (mole fraction) (in ethanol, 283.15 K): 0.0231 | solubility (mole fraction) (in ethanol, 288.15 K): 0.0257 | solubility (mole fraction) (in ethanol, 293.15 K): 0.0276 | solubility (mole fraction) (in ethanol, 298.15 K): 0.0319 | solubility (mole fraction) (in ethanol, 303.15 K): 0.0371 | solubility (mole fraction) (in ethanol, 308.15 K): 0.0419 | solubility (mole fraction) (in ethanol, 313.15 K): 0.0468 | solubility (mole fraction) (in ethanol, 318.15 K): 0.0514 | solubility (mole fraction) (in ethanol, 323.15 K): 0.0598 | solubility (mole fraction) (in ethyl acetate, 283.15 K): 0.00239 | solubility (mole fraction) (in ethyl acetate, 288.15 K): 0.0026 | solubility (mole fraction) (in ethyl acetate, 293.15 K): 0.00296 | solubility (mole fraction) (in ethyl acetate, 298.15 K): 0.00318 | solubility (mole fraction) (in ethyl acetate, 303.15 K): 0.00347 | solubility (mole fraction) (in ethyl acetate, 308.15 K): 0.00391 | solubility (mole fraction) (in ethyl acetate, 313.15 K): 0.00451 | solubility (mole fraction) (in ethyl acetate, 318.15 K): 0.00498 | solubility (mole fraction) (in ethyl acetate, 323.15 K): 0.0056 | solubility (mole fraction) (in isopropanol, 283.15 K): 0.0139 | solubility (mole fraction) (in isopropanol, 288.15 K): 0.0142 | solubility (mole fraction) (in isopropanol, 293.15 K): 0.0156 | solubility (mole fraction) (in isopropanol, 298.15 K): 0.0175 | solubility (mole fraction) (in isopropanol, 303.15 K): 0.0199 | solubility (mole fraction) (in isopropanol, 308.15 K): 0.0238 | solubility (mole fraction) (in isopropanol, 313.15 K): 0.0269 | solubility (mole fraction) (in isopropanol, 318.15 K): 0.0302 | solubility (mole fraction) (in isopropanol, 323.15 K): 0.0351 | solubility (mole fraction) (in methanol, 283.15 K): 0.0246 | solubility (mole fraction) (in methanol, 288.15 K): 0.0266 | solubility (mole fraction) (in methanol, 293.15 K): 0.0295 | solubility (mole fraction) (in methanol, 298.15 K): 0.0325 | solubility (mole fraction) (in methanol, 303.15 K): 0.0364 | solubility (mole fraction) (in methanol, 308.15 K): 0.0413 | solubility (mole fraction) (in methanol, 313.15 K): 0.0471 | solubility (mole fraction) (in methanol, 318.15 K): 0.0525 | solubility (mole fraction) (in methanol, 323.15 K): 0.0611 | solubility (mole fraction) (in methyl acetate, 283.15 K): 0.00319 | solubility (mole fraction) (in methyl acetate, 288.15 K): 0.00355 | solubility (mole fraction) (in methyl acetate, 293.15 K): 0.00388 | solubility (mole fraction) (in methyl acetate, 298.15 K): 0.00418 | solubility (mole fraction) (in methyl acetate, 303.15 K): 0.00473 | solubility (mole fraction) (in methyl acetate, 308.15 K): 0.00535 | solubility (mole fraction) (in methyl acetate, 313.15 K): 0.00609 | solubility (mole fraction) (in methyl acetate, 318.15 K): 0.00726 | solubility (mole fraction) (in methyl acetate, 323.15 K): 0.00888 | solubility (mole fraction) (in n-butanol, 283.15 K): 0.00911 | solubility (mole fraction) (in n-butanol, 288.15 K): 0.00972 | solubility (mole fraction) (in n-butanol, 293.15 K): 0.0102 | solubility (mole fraction) (in n-butanol, 298.15 K): 0.0114 | solubility (mole fraction) (in n-butanol, 303.15 K): 0.0127 | solubility (mole fraction) (in n-butanol, 308.15 K): 0.0141 | solubility (mole fraction) (in n-butanol, 313.15 K): 0.016 | solubility (mole fraction) (in n-butanol, 318.15 K): 0.0173 | solubility (mole fraction) (in n-butanol, 323.15 K): 0.0199 | solubility (mole fraction) (in n-butyl acetate, 283.15 K): 0.00177 | solubility (mole fraction) (in n-butyl acetate, 288.15 K): 0.00182 | solubility (mole fraction) (in n-butyl acetate, 293.15 K): 0.00204 | solubility (mole fraction) (in n-butyl acetate, 298.15 K): 0.0022 | solubility (mole fraction) (in n-butyl acetate, 303.15 K): 0.00238 | solubility (mole fraction) (in n-butyl acetate, 308.15 K): 0.00269 | solubility (mole fraction) (in n-butyl acetate, 313.15 K): 0.00309 | solubility (mole fraction) (in n-butyl acetate, 318.15 K): 0.0034 | solubility (mole fraction) (in n-butyl acetate, 323.15 K): 0.00381 | solubility (mole fraction) (in n-pentanol, 283.15 K): 0.00655 | solubility (mole fraction) (in n-pentanol, 288.15 K): 0.00765 | solubility (mole fraction) (in n-pentanol, 293.15 K): 0.00845 | solubility (mole fraction) (in n-pentanol, 298.15 K): 0.00993 | solubility (mole fraction) (in n-pentanol, 303.15 K): 0.0112 | solubility (mole fraction) (in n-pentanol, 308.15 K): 0.0128 | solubility (mole fraction) (in n-pentanol, 313.15 K): 0.0159 | solubility (mole fraction) (in n-pentanol, 318.15 K): 0.0187 | solubility (mole fraction) (in n-pentanol, 323.15 K): 0.0221 | solubility (mole fraction) (in n-propanol, 283.15 K): 0.0138 | solubility (mole fraction) (in n-propanol, 288.15 K): 0.0146 | solubility (mole fraction) (in n-propanol, 293.15 K): 0.0155 | solubility (mole fraction) (in n-propanol, 298.15 K): 0.0172 | solubility (mole fraction) (in n-propanol, 303.15 K): 0.02 | solubility (mole fraction) (in n-propanol, 308.15 K): 0.0237 | solubility (mole fraction) (in n-propanol, 313.15 K): 0.0258 | solubility (mole fraction) (in n-propanol, 318.15 K): 0.03 | solubility (mole fraction) (in n-propanol, 323.15 K): 0.0333 | solubility (mole fraction) (in n-propyl acetate, 283.15 K): 0.0016 | solubility (mole fraction) (in n-propyl acetate, 288.15 K): 0.00169 | solubility (mole fraction) (in n-propyl acetate, 293.15 K): 0.00192 | solubility (mole fraction) (in n-propyl acetate, 298.15 K): 0.00204 | solubility (mole fraction) (in n-propyl acetate, 303.15 K): 0.00232 | solubility (mole fraction) (in n-propyl acetate, 308.15 K): 0.00247 | solubility (mole fraction) (in n-propyl acetate, 313.15 K): 0.00281 | solubility (mole fraction) (in n-propyl acetate, 318.15 K): 0.00317 | solubility (mole fraction) (in n-propyl acetate, 323.15 K): 0.00355
